inhibition, IC50 and ΔTm data for two compounds are collected here from ChEMBL document CHEMBL4261582, “Natural products as inhibitors of Leishmania major dihydroorotate dehydrogenase” (Eur J Med Chem, 2018).

In test [1] the target is Dihydroorotate dehydrogenase (quinone), mitochondrial (Homo sapiens) (UniProt Q02127). The experiment in a line: Inhibition of human DHODH at 100 uM.
Test [2] concerns the target T1, Dihydroorotate dehydrogenase (fumarate) (Leishmania major) (UniProt Q4QEW7).
T1 sequence (whole entry): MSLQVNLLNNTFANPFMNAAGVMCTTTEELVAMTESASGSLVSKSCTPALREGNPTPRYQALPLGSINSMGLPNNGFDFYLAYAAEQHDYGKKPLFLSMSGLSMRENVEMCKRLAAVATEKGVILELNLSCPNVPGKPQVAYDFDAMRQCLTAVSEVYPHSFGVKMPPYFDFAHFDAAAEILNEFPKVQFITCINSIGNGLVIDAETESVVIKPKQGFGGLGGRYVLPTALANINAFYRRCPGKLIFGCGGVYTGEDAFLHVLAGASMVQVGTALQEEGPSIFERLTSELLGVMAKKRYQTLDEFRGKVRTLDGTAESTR
In words: Inhibition of recombinant oligo-histidine-tagged Leishmania major DHODH expressed in Escherichia coli BL21(DE3) cells at 100 uM using DHO as substrate measured after 60 secs.

Test [3] concerns the target T2, Dihydroorotate dehydrogenase (fumarate) (Leishmania major, UniProt Q4QEW7).
T2 sequence (Q4QEW7 whole entry): T1 sequence (whole entry)
The experiment in a line: Inhibition of recombinant oligo-histidine-tagged Leishmania major DHODH expressed in Escherichia coli BL21(DE3) cells using DHO as substrate measured after 60 secs. The note with it: read-out: IC50.

Test [4] has as its target T1, Dihydroorotate dehydrogenase (fumarate) (Leishmania major). In words: Binding affinity to Leishmania major DHODH assessed as change in melting temperature at 100 uM by differential scanning fluorimetry-based ThermoFMN assay. (In general: DSF heats the sample and reads unfolding from a dye or from intrinsic fluorescence.)
Test [5] shares this target. In words: Binding affinity to Leishmania major DHODH assessed as change in melting temperature at 500 uM by differential scanning fluorimetry-based ThermoFMN assay.
Test [6] shares this target. The experiment in a line: Binding affinity to Leishmania major DHODH assessed as change in melting temperature at 1000 uM by differential scanning fluorimetry-based ThermoFMN assay.
For test [7] the target is unchanged. In words: Binding affinity to Leishmania major DHODH assessed as change in melting temperature at 100 uM by SYPRO orange dye-based differential scanning fluorimetry.
Test [8] shares this target. In words: Binding affinity to Leishmania major DHODH assessed as change in melting temperature at 500 uM by SYPRO orange dye-based differential scanning fluorimetry.
Test [9] has the same target. The experiment in a line: Binding affinity to Leishmania major DHODH assessed as change in melting temperature at 1000 uM by SYPRO orange dye-based differential scanning fluorimetry.
Test [10] concerns Leishmania major. In words: Antileishmanial activity against Leishmania major promastigotes. The class given is functional, organism-based.
The subject of test [11] is Leishmania major. The experiment in a line: Antileishmanial activity against Leishmania major amastigotes. The class given is functional, organism-based.
For the next test, the system named is Leishmania amazonensis. The experiment in a line: Antileishmanial activity against Leishmania amazonensis promastigotes. The class given is functional, organism-based.
The next test deals with Leishmania braziliensis. In words: Antileishmanial activity against Leishmania braziliensis promastigotes. The class given is functional, organism-based.

Sequence of Dihydroorotate dehydrogenase (quinone), mitochondrial (Homo sapiens) (Q02127 whole entry): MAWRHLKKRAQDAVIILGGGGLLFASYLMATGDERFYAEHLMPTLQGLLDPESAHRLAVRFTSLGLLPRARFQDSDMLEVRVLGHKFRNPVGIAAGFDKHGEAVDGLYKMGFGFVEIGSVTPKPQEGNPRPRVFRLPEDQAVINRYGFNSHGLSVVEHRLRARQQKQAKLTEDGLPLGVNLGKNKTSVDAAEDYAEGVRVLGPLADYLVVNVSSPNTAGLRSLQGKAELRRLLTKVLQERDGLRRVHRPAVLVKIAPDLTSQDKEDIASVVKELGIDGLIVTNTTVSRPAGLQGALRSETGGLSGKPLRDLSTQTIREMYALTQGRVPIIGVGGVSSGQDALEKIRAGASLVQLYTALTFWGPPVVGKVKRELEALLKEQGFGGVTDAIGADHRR

As to `C[C@@H]1CC[C@H]2[C@@H](C)C(=O)O[C@@H]3O[C@@]4(C)CC[C@@H]1[C@]32OO4` [ARTEMISININ], the inhibition was found to be 0% in [1] and 44% in [2]. Also, the IC50 was determined as 172 µM in test [3], 0.75 µM with Leishmania major [10] and 0.3 µM in the test with Leishmania major [11]. Besides, the ΔTm is -0.13 °C in test [4]; -0.35 °C in test [5]; -0.4 °C in test [6]; -0.14 °C in [7]; -0.22 °C in [8]; -0.52 °C in test [9].
As to `CC(=O)OCC1=C2[C@@H](OC(C)=O)C[C@@](C)(OC(C)=O)C(=O)CC[C@@]3(C)O[C@@H]3[C@H]2OC1=O`, the inhibition in [1] worked out at 0%; in test [2] it was 41%. Moreover, the IC50 in [3] was found to be 30.9 µM; in the test with Leishmania amazonensis it was 46.1 µM; in the test with Leishmania braziliensis it was 27.9 µM. For the same compound, the thermal shift (ΔTm) in test [4] is -0.21 °C; in test [5] it was -0.41 °C; in [6], -0.7 °C; in test [7] it was -0.27 °C; in test [8], -0.47 °C; in test [9], -0.64 °C.

A word on the inhibition: it is how much of the control response was suppressed. The IC50 is the concentration that gives 50% inhibition. Usually ΔTm stands for the shift of the melting midpoint relative to a reference.
